# Measured values reported in patent US10781204B2, “TYK2 inhibitors and uses thereof” (Nimbus Lakshmi, Inc., priority 2015, dated 2020).
# Experiments:
# [1] = molecular target: TYK2 (Homo sapiens (Human), UniProt P29597); assay: Tyk2 radioactive kinase assay; type: biochemical; details: ATP 10 μM
# Protocol: (§1) Peptide substrate, [KKSRGDYMTMQIG], (20 μM) is prepared in reaction buffer (20 mM Hepes pH 7.5, 10 mM MgCl2, 1 mM EGTA, 0.02% Brij35, 0.02 mg/mL BSA, 0.1 mM […], 2 mM DTT, 1% DMSO. TYK2 (Invitrogen) kinase is added, followed by compounds in DMSO. ^33PATP is added to initiate the reaction with ATP at 10 μM. Kinase reaction is incubated for 120 min at room temp and reactions are spotted onto P81 ion exchange paper (Whatman #3698-915), and then washed extensively in 0.75% phosphoric acid, prior to reading the radioactivity counts. For JAK2 (Invitrogen) kinase assay the peptide substrate poly[Glu:Tyr] (4:1), 0.2 mg/ml is used, in the reaction carried out the same as for TYK2.
# [2] = molecular target: JAK2 (Homo sapiens (Human), UniProt O60674); assay: JAK2 radioactive kinase assay; type: biochemical; details: ATP 10 μM
# Sequence of JAK2 (O60674 whole entry): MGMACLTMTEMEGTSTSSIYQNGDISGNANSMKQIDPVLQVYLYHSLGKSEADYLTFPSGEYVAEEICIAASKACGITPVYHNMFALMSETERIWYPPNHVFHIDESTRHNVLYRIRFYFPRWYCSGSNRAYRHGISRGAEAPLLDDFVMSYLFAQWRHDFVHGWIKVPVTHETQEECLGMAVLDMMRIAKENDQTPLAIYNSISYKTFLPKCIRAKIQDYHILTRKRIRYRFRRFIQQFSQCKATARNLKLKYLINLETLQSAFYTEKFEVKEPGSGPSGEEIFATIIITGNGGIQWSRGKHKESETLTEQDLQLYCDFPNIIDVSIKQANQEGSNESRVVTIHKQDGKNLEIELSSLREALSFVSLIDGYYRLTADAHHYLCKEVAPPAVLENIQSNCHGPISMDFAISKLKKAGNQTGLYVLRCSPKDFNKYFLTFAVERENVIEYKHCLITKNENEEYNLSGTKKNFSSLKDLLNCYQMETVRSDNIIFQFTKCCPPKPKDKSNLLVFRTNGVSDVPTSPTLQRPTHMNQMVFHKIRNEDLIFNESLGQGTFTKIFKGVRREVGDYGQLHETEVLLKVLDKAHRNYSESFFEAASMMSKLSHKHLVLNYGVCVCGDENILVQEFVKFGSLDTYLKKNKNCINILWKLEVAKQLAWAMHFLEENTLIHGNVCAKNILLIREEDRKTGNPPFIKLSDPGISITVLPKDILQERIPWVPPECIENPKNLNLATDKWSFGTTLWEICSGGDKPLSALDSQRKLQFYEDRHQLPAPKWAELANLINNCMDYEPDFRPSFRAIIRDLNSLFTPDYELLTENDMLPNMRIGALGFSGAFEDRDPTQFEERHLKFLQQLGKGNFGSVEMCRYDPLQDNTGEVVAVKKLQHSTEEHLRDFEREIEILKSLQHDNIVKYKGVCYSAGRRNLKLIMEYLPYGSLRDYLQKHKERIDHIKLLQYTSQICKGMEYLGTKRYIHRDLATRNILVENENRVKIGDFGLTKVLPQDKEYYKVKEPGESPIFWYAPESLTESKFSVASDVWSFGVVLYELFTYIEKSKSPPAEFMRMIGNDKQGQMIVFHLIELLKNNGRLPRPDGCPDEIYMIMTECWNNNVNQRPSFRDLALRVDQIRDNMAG
# Protocol: as §1
# [3] = system: Tyk2-pSTAT4 (IL-12 induced pSTAT4); assay: IL-12 induced pSTAT4 in human PBMC; type: cell-based; details: Homo sapiens, PBMC, 0.5 h, 1.7 ng/mL IL-12, 30 minutes
# Protocol: Human PBMC are isolated from buffy coat and are stored frozen for assays as needed. Cells for assay are thawed and resuspended in complete media containing serum, then cells are diluted to 1.67 E6 cells/ml so that 120 ul per well is 200,000 cells. 15 ul of compound or DMSO is added to the well at the desired concentrations and incubated at 1 hr at 37 C. 15 ul of stimulus (final concentration of 1.7 ng/mL IL-12) is added for 30 minutes prior to pSTAT4 and total STAT4 analysis using cell lysates prepared and analyzed by MSD reagents as per manufacturer protocol. The final DMSO concentration of compound in the assay is 0.1%.
# Sequence of TYK2 (P29597 whole entry): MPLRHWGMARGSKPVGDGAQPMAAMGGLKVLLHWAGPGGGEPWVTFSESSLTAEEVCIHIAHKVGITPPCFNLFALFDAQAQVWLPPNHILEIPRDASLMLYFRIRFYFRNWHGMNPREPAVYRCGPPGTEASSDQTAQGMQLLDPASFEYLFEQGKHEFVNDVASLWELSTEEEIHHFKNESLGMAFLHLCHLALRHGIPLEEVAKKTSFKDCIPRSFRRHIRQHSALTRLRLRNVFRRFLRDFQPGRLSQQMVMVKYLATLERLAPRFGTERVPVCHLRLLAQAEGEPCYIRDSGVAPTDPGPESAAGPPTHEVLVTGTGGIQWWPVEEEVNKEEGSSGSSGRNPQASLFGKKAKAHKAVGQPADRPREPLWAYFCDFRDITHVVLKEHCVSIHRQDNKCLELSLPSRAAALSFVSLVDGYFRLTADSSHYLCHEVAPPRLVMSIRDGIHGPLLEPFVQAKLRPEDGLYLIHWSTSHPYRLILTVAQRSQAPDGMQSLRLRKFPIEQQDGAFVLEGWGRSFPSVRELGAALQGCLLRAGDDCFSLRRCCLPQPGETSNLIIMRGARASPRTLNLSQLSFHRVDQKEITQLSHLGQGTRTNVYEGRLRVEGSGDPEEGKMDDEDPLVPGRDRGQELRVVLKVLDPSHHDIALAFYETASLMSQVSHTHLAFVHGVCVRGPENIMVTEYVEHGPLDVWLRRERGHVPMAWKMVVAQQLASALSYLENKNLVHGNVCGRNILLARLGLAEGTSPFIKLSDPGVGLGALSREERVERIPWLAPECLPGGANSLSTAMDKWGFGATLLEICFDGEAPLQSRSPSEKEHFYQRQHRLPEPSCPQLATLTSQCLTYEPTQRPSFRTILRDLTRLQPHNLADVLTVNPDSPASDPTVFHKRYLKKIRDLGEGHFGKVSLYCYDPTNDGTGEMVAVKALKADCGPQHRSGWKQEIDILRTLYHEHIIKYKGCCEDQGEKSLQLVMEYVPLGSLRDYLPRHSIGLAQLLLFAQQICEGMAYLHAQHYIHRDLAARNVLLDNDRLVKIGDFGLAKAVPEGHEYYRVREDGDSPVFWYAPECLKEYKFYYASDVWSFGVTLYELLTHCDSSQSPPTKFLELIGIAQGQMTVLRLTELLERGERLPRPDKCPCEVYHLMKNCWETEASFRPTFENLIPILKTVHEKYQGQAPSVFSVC
SMILES,Ki [1] [µM],Ki [2] [µM],EC50 [3] [µM]
"O=C1NCc2nc(-c3c(F)cccc3F)cc(-n3ccc(N4CCOCC4)n3)c21 [I-1, 2-(2,6-difluorophenyl)-4-(3-morpholino-1H-pyrazol-1-yl)-6,7-dihydro-5H-pyrrolo[3,4-b]pyridin-5-one]",0.0001 to 0.01,0.1 to 1,
"CN1CCN(c2ccn(-c3cc(-c4c(F)cccc4F)nc4c3C(=O)NC4)n2)CC1 [I-5, 2-(2,6-difluorophenyl)-4-(3-(4-methylpiperazin-1-yl)-1H-pyrazol-1-yl)-6,7-dihydro-5H-pyrrolo[3,4-b]pyridin-5-one]",0.0001 to 0.01,0.1 to 1,
"CCNC(=O)Cc1ccn(-c2cc(-c3c(F)cccc3C#N)nc3c2C(=O)NC3)n1 [I-7, 2-(1-(2-(2-cyano-6-fluorophenyl)-5-oxo-6,7-dihydro-5H-pyrro-lo[3,4-b]pyridin-4-yl)-1H-pyrazol-3-yl)-N-ethylacetamide]",0.0001 to 0.01,0.1 to 1,
"O=C1NCc2nc(-c3c(F)cccc3F)cc(-n3cccn3)c21 [I-58, 2-(2,6-difluorophenyl)-4-(1H-pyrazol-1-yl)-6,7-dihydro-5H-pyrrolo[3,4-b]pyridin-5-one]",0.01 to 0.1,0.1 to 1,
"CC(C)n1cc(-c2cc(-c3c(F)cccc3C#N)nc3c2C(=O)NC3)cn1 [I-61, 3-fluoro-2-(4-(1-isopropyl-1H-pyrazol-4-yl)-5-oxo-6,7-dihydro-5H-pyrrolo[3,4-b]pyridin-2-yl)benzonitrile]",0.0001 to 0.01,0.01 to 0.1,0.1 to 2
"N#Cc1cccc(F)c1-c1cc(-n2ccc(N3CCC(N4CCCC4)CC3)n2)c2c(n1)CNC2=O [I-66, 3-fluoro-2-(5-oxo-4-(3-(4-(pyrrolidin-1-yl)piperidin-1-yl)-1H-pyrazol-1-yl)-6,7-dihydro-5H-pyrrolo[3,4-b]pyridin-2-yl)benzonitrile]",0.0001 to 0.01,0.01 to 0.1,
"CS(=O)(=O)c1ccn(-c2cc(-c3c(F)cccc3C#N)nc3c2C(=O)NC3)n1 [I-81, 3-fluoro-2-(4-(3-(methylsulfonyl)-1H-pyrazol-1-yl)-5-oxo-6,7-dihydro-5H-pyrrolo[3,4-b]pyridin-2-yl)benzonitrile]",0.01 to 0.1,≥ 1,
"COCCOC1CN(c2ccn(-c3cc(-c4c(F)cccc4C#N)nc4c3C(=O)NC4)n2)C1 [I-82, 3-fluoro-2-(4-(3-(3-(2-methoxyethoxy)azetidin-1-yl)-1H-pyrazol-1-yl)-5-oxo-6,7-dihydro-5H-pyrrolo[3,4-b]pyridin-2-yl)benzonitrile]",≥ 1,≥ 1,
"N#Cc1cccc(F)c1-c1cc(-n2ccc(CCO)n2)c2c(n1)CNC2=O [I-94, 3-fluoro-2-(4-(3-(2-hydroxyethyl)-1H-pyrazol-1-yl)-5-oxo-6,7-dihydro-5H-pyrrolo[3,4-b]pyridin-2-yl)benzonitrile]",0.01 to 0.1,0.1 to 1,
"CN1CC(S(=O)(=O)N2CCN(c3ccn(-c4cc(-c5c(F)cccc5C#N)nc5c4C(=O)NC5)n3)CC2)C1 [I-99, 3-fluoro-2-(4-(3-(4-((1-methylazetidin-3-yl)sulfonyl)piperazin-1-yl)-1H-pyrazol-1-yl)-5-oxo-6,7-dihydro-5H-pyrrolo[3,4-b]pyridin-2-yl)benzonitrile]",≥ 1,≥ 1,
"N#Cc1cccc(F)c1-c1cc(-n2ccc(CC(=O)O)n2)c2c(n1)CNC2=O [I-102, 2-(1-(2-(2-cyano-6-fluorophenyl)-5-oxo-6,7-dihydro-5H-pyrrolo[3,4-b]pyridin-4-yl)-1H-pyrazol-3-yl)acetic acid]",0.01 to 0.1,≥ 1,
"C[C@@H]1CC(O)C[C@@H](C)N1c1ccn(-c2cc(-c3c(F)cccc3C#N)nc3c2C(=O)NC3)n1 (stereo partly drawn) [I-106, 3-fluoro-2-(4-(3-((2R,6R)-4-hydroxy-2,6-dimethylpiperidin-1-yl)-1H-pyrazol-1-yl)-5-oxo-6,7-dihydro-5H-pyrrolo[3,4-b]pyridin-2-yl)benzonitrile]",0.01 to 0.1,0.1 to 1,
"N#Cc1cccc(F)c1-c1cc(-n2ccc(N3CCOCC3=O)n2)c2c(n1)CNC2=O [I-138, 3-fluoro-2-(5-oxo-4-(3-(3-oxomorpholino)-1H-pyrazol-1-yl)-6,7-dihydro-5H-pyrrolo[3,4-b]pyridin-2-yl)benzonitrile]",0.0001 to 0.01,0.1 to 1,
"CO[C@H]1CN(c2ccn(-c3cc(-c4c(F)cccc4C#N)nc4c3C(=O)NC4)n2)C[C@H]1O [I-143, 3-fluoro-2-(4-(3-((3R,4S)-3-hydroxy-4-methoxypyrrolidin-1-yl)-1H-pyrazol-1-yl)-5-oxo-6,7-dihydro-5H-pyrrolo[3,4-b]pyridin-2-yl)benzonitrile]",0.0001 to 0.01,0.0001 to 0.01,
"C[C@]1(O)CN(c2ccn(-c3cc(-c4c(F)cccc4C#N)nc4c3C(=O)NC4)n2)C[C@@](C)(O)C1 [I-144, 2-(4-(3-((3S,5R)-3,5-dihydroxy-3,5-dimethylpiperidin-1-yl)-1H-pyrazol-1-yl)-5-oxo-6,7-dihydro-5H-pyrrolo[3,4-b]pyridin-2-yl)-3-fluorobenzonitrile]",0.01 to 0.1,0.1 to 1,
"N#Cc1cccc(F)c1-c1cc(-n2ccc(N3CCC4(CCNC4=O)C3)n2)c2c(n1)CNC2=O (centres unmarked) [I-146, 3-fluoro-2-(5-oxo-4-(3-(6-oxo-2,7-diazaspiro[4.4]nonan-2-yl)-1H-pyrazol-1-yl)-6,7-dihydro-5H-pyrrolo[3,4-b]pyridin-2-yl)benzonitrile]",0.0001 to 0.01,0.01 to 0.1,
"CO[C@@H]1CN(c2ccn(-c3cc(-c4c(F)cccc4C#N)nc4c3C(=O)NC4)n2)C[C@@H]1O [I-154, 3-fluoro-2-(4-(3-((3S,4R)-3-hydroxy-4-methoxypyrrolidin-1-yl)-1H-pyrazol-1-yl)-5-oxo-6,7-dihydro-5H-pyrrolo[3,4-b]pyridin-2-yl)benzonitrile]",0.0001 to 0.01,,0.03 to 0.1
"[2H]C([2H])([2H])O[C@H]1CN(c2ccn(-c3cc(-c4c(F)cccc4C#N)nc4c3C(=O)NC4)n2)C[C@H]1O [I-199, 3-fluoro-2-(4-(3-((3R,4S)-3-hydroxy-4-(methoxy-d3)pyrrolidin-1-yl)-1H-pyrazol-1-yl)-5-oxo-6,7-dihydro-5H-pyrrolo[3,4-b]pyridin-2-yl)benzonitrile]",0.0001 to 0.01,0.01 to 0.1,

# Other lines, results leading:
Ki [1] [µM],Ki [2] [µM],EC50 [3] [µM],SMILES
0.0001 to 0.01,0.01 to 0.1,,"N#Cc1cccc(F)c1-c1cc(-n2ccc(NCCO)n2)c2c(n1)CNC2=O [I-64, 3-fluoro-2-(4-(3-((2-hydroxyethyl)amino)-1H-pyrazol-1-yl)-5-oxo-6,7-dihydro-5H-pyrrolo[3,4-b]pyridin-2-yl)benzonitrile]"
0.0001 to 0.01,0.01 to 0.1,,"CN(C)[C@H]1CC[C@H](Nc2ccn(-c3cc(-c4c(F)cccc4C#N)nc4c3C(=O)NC4)n2)CC1 [I-67, 2-(4-(3-(((1r,4r)-4-(dimethylamino)cyclohexyl)amino)-1H-pyrazol-1-yl)-5-oxo-6,7-dihydro-5H-pyrrolo[3,4-b]pyridin-2-yl)-3-fluorobenzonitrile]"
0.0001 to 0.01,0.01 to 0.1,,"CC1(O)CCN(c2ccn(-c3cc(-c4c(F)cccc4C#N)nc4c3C(=O)NC4)n2)C1 (centres unmarked) [I-87, 3-fluoro-2-(4-(3-(3-hydroxy-3-methylpyrrolidin-1-yl)-1H-pyrazol-1-yl)-5-oxo-6,7-dihydro-5H-pyrrolo[3,4-b]pyridin-2-yl)benzonitrile]"
0.0001 to 0.01,0.0001 to 0.01,,"CC1(O)CN(c2ccn(-c3cc(-c4c(F)cccc4C#N)nc4c3C(=O)NC4)n2)CC[C@H]1O (stereo partly drawn) [I-108, 2-(4-(3-((4R)-3,4-dihydroxy-3-methylpiperidin-1-yl)-1H-pyrazol-1-yl)-5-oxo-6,7-dihydro-5H-pyrrolo[3,4-b]pyridin-2-yl)-3-fluorobenzonitrile]"
0.0001 to 0.01,0.01 to 0.1,,"N#Cc1cccc(F)c1-c1cc(-n2ccc(N3CCC[C@H](O)[C@H](O)C3)n2)c2c(n1)CNC2=O [I-115, 2-(4-(3-((3R,4S)-3,4-dihydroxyazepan-1-yl)-1H-pyrazol-1-yl)-5-oxo-6,7-dihydro-5H-pyrrolo[3,4-b]pyridin-2-yl)-3-fluorobenzonitrile]"
0.0001 to 0.01,0.0001 to 0.01,,"N#Cc1cccc(F)c1-c1cc(-n2ccc(N3CCC(C#N)C3)n2)c2c(n1)CNC2=O (centres unmarked) [I-116, 1-(1-(2-(2-cyano-6-fluorophenyl)-5-oxo-6,7-dihydro-5H-pyrrolo[3,4-b]pyridin-4-yl)-1H-pyrazol-3-yl)pyrrolidine-3-carbonitrile]"
0.0001 to 0.01,0.01 to 0.1,,"CN(C)[C@H]1CC[C@H](Oc2ccn(-c3cc(-c4c(F)cccc4C#N)nc4c3C(=O)NC4)n2)CC1 [I-117, 2-(4-(3-(((1r,4r)-4-(dimethylamino)cyclohexyl)oxy)-1H-pyrazol-1-yl)-5-oxo-6,7-dihydro-5H-pyrrolo[3,4-b]pyridin-2-yl)-3-fluorobenzonitrile]"
0.0001 to 0.01,0.01 to 0.1,,"N#Cc1cccc(F)c1-c1cc(-n2ccc(N3CC[C@H](F)[C@H](O)C3)n2)c2c(n1)CNC2=O [I-174, 3-fluoro-2-(4-(3-((3R,4S)-4-fluoro-3-hydroxypiperidin-1-yl)-1H-pyrazol-1-yl)-5-oxo-6,7-dihydro-5H-pyrrolo[3,4-b]pyridin-2-yl)benzonitrile]"
